Data published in patent publication US10052392B2, “Low molecular weight polyethylene glycol drug conjugates having improved drug biological activity” (JENKEM TECHNOLOGY CO., LTD. (TIANJIN), priority 2013, dated 2018).
Like-named read-outs stand apart in the source and are kept apart here.

What was measured:
Caco-2 cell monolayer [1] = test: Caco-2 cell monolayer transmembrane transport (unidirectional and bidirectional); conditions: for Papp (*10^−6)A→B: Caco-2, A→B; for Papp (*10^−6)A→B / Papp (*10^−6)B→A: 90 min incubation; for Papp (*10^−6)B→A: Caco-2, B→A; for Papp (B→A)/Papp (A→B): Caco-2 efflux ratio, >2 suggests efflux transporter
Description: (§2) Wherein dQ is an accumulated penetration amount of a drug receiving pond with a measure unit pmol; dt is incubation time with a measure unit min; A is a diffusion area with a measure unit cm^2; C0 is an initial administration concentration of an administrating pond with a measure unit μmol. L^−1; Papp has a measure unit cm/s.
(§3) An evaluation objective of the bidirectional transport is to preliminary observe that the transmembrane transport of the object to be tested has active transport procedure mediated by an efflux transporter.

K562 = test: Inhibition of cell proliferation, CTG method, 72 hours; format: cell-based; conditions: K562 cells
Description: (§1) Cells are cultured under a complete culture medium; when cells are attached to the wall, drug of different concentrations is added in each tumor cell line for treatment, and a positive control, a blank control and a solvent control are set. Cells are incubated for 72 hours and then CTG method is used for detection.

SUP-B15 = test: as above; format: cell-based; conditions: SUP-B15 cells
Description: as §1

KU812 = test: as above; format: cell-based; conditions: KU812 cells
Description: as §1

PC-3 = test: as above; format: cell-based; conditions: PC-3 cells
Description: as §1

[2] = Caco-2 cell monolayer transmembrane transport (unidirectional and bidirectional); conditions: human, Caco-2
Description: as §2, §3

[3] = Absolute bioavailability, intravenous vs intragastric administration; format: in vivo; conditions: male SD rat, intragastric vs tail intravenous injection
Description: Animal: male SD rat Groups of the experiment: intravenous injection group and oral administration group, four rats being provided for each rat Administration manner: tail intravenous injection, intragastric administration Data processing: an area under a curve is calculated for intravenous injection and oral administration by using a trapezoidal method, and a bioavailability is calculated by using the following formula: […]

Caco-2 cell monolayer [4] = test system: Caco-2 cell monolayer
Description: as §2, §3

Molecule: Double End Substituted Hexaethyleneglycol-dorzolamide [DZA-02]
- Papp (*10^−6)A→B (Caco-2 cell monolayer [1]): 12.32 ± 0.34 *10^−6 cm/s
- Papp (*10^−6)B→A (Caco-2 cell monolayer [1]): 25.50 ± 1.21 *10^−6 cm/s
- Papp (B→A)/Papp (A→B) (Caco-2 cell monolayer [1]): 2.07

Molecule: Cc1nc(Nc2ncc(C(=O)Nc3c(C)cccc3Cl)s2)cc(N2CCN(CCOCCOCCOCCOCCOCCOCCOCCN3CCN(c4cc(Nc5ncc(C(=O)Nc6c(C)cccc6Cl)s5)nc(C)n4)CC3)CC2)n1 [DSTN-62, Double Endhexaethylene Glycol-dasatinib]
- Papp (*10^−6)A→B (Caco-2 cell monolayer [1]): 6.44 ± 0.11 *10^−6 cm/s
- Papp (*10^−6)B→A (Caco-2 cell monolayer [1]): 15.01 ± 0.59 *10^−6 cm/s
- Papp (B→A)/Papp (A→B) (Caco-2 cell monolayer [1]): 2.33
- IC50 (K562): 0.34 nM
- Maximum inhibition rate (K562): 81.76%
- IC50 (SUP-B15): 60 nM
- Maximum inhibition rate (SUP-B15): 81.47%
- IC50 (KU812): 0.49 nM
- Maximum inhibition rate (KU812): 96.00%
- Maximum inhibition rate (PC-3): 29.74%

Molecule: CN(C)CCc1c[nH]c2ccc(CS(=O)(=O)N(C)CCOCCOCCOCCOCCOCCN(C)S(=O)(=O)Cc3ccc4[nH]cc(CCN(C)C)c4c3)cc12 [SMQT-01, Double End-substituted Hexaethyleneglycol-sumatriptan]
- Papp A→B at 90 min [2]: 10.6 ± 0.36 ×10⁻⁶ cm/s
- Papp B→A at 90 min [2]: 15.5 ± 0.06 ×10⁻⁶ cm/s
- efflux ratio at 90 min [2]: 1.47
- bioavailability ([3]; blood, oral): 17%

Molecule: CN(C)CCc1c[nH]c2ccc(CS(=O)(=O)N(C)CCOCCOCCN(C)S(=O)(=O)Cc3ccc4[nH]cc(CCN(C)C)c4c3)cc12 [SMQT-03, Double End-substituted Triethylene Glycol-sumatriptan]
- absolute bioavailability [3]: 25%
- Papp (*10^−6)A→B (Caco-2 cell monolayer [4]): 6.25 ± 0.51 *10^−6 cm/s
- Papp (*10^−6)B→A (Caco-2 cell monolayer [4]): 11.06 ± 0.21 *10^−6 cm/s

Molecule: Cc1nc(Nc2ncc(C(=O)Nc3c(C)cccc3Cl)s2)cc(N2CCN(CCOCCOCCOCCOCCOCCN3CCN(c4cc(Nc5ncc(C(=O)Nc6c(C)cccc6Cl)s5)nc(C)n4)CC3)CC2)n1 [DSTN-42, Double End-substituted Tetraethylene Glycol-dasatinib]
- Papp (*10^−6)A→B (Caco-2 cell monolayer [1]): 4.57 ± 0.87 *10^−6 cm/s
- Papp (*10^−6)B→A (Caco-2 cell monolayer [1]): 11.43 ± 0.72 *10^−6 cm/s
- Papp (B→A)/Papp (A→B) (Caco-2 cell monolayer [1]): 2.50
- IC50 (K562): 0.5 nM
- Maximum inhibition rate (K562): 80.34%
- IC50 (SUP-B15): 50 nM
- Maximum inhibition rate (SUP-B15): 93.36%
- IC50 (KU812): 0.79 nM
- Maximum inhibition rate (KU812): 96.91%
- Maximum inhibition rate (PC-3): 30.97%

Molecule: CCN[C@H]1C[C@H](C)S(=O)(=O)c2sc(S(=O)(=O)NCCOCCOCCOCCOCCOCCOCCOCCOCCOCCOCCOCCNS(=O)(=O)c3cc4c(s3)S(=O)(=O)[C@@H](C)C[C@@H]4NCC)cc21 [DZA-03, Double End Substituted Odecylethyleneglycol-dorzolamide]
- Papp (*10^−6)A→B (Caco-2 cell monolayer [1]): 8.96 ± 0.35 *10^−6 cm/s
- Papp (*10^−6)B→A (Caco-2 cell monolayer [1]): 23.67 ± 0.45 *10^−6 cm/s
- Papp (B→A)/Papp (A→B) (Caco-2 cell monolayer [1]): 2.64

Molecule: CN(C)CCc1c[nH]c2ccc(CS(=O)(=O)N(C)CCOCCOCCOCCOCCN(C)S(=O)(=O)Cc3ccc4[nH]cc(CCN(C)C)c4c3)cc12 [SMQT-02, Double End-substituted Pentaethyleneglycol-sumatriptan]
- absolute bioavailability [3]: 23%
- Papp (*10^−6)A→B (Caco-2 cell monolayer [4]): 9.87 ± 0.03 *10^−6 cm/s
- Papp (*10^−6)B→A (Caco-2 cell monolayer [4]): 14.52 ± 0.12 *10^−6 cm/s

Molecule: CCN[C@H]1C[C@H](C)S(=O)(=O)c2sc(S(=O)(=O)NCCOCC(COCCNS(=O)(=O)c3cc4c(s3)S(=O)(=O)[C@@H](C)C[C@@H]4NCC)(COCCNS(=O)(=O)c3cc4c(s3)S(=O)(=O)[C@@H](C)C[C@@H]4NCC)COCCNS(=O)(=O)c3cc4c(s3)S(=O)(=O)[C@@H](C)C[C@@H]4C)cc21 [DZA-06, Four-Branch Ethyleneglycol-dorzolamide Conjugate]
- Papp A→B at 90 min [2]: 8.86 ± 0.51 ×10⁻⁶ cm/s
- Papp B→A at 90 min [2]: 18.1 ± 0.32 ×10⁻⁶ cm/s
- efflux ratio at 90 min [2]: 2.05

Molecule: Single End Substituted Pentaethyleneglycol-dorzolamide [DZA-01]
- Papp (*10^−6)A→B (Caco-2 cell monolayer [1]): 11.54 ± 0.36 *10^−6 cm/s
- Papp (*10^−6)B→A (Caco-2 cell monolayer [1]): 15.50 ± 0.06 *10^−6 cm/s
- Papp (B→A)/Papp (A→B) (Caco-2 cell monolayer [1]): 1.34
